The values below come from US11311561B2, “Composition and method for treating, relieving or preventing neuropathic pain, containing choline alfoscerate as active ingredient” (NANOSTEM CO., LTD., priority 2017, dated 2022).

Data set [1] in a line: Clinical trial: side effects after the treatment. It is filed as in vivo, human. Conditions: Example 1: iv 1 g twice a week; Example 2: oral 400 mg 3 times a day; patients. The method, then:
(§1) The “nerve block treatment group (control group)” patients were injected with 5 mL of 0.5% lidocaine at the sites of pain (4-5 points), once a week.
(§2) The “choline alfoscerate intravenous administration group (Example 1)” patients were intravenously injected slowly with choline alfoscerate (1 g/4 mL) mixed in 100 mL of physiological saline, twice a week.
(§3) The “choline alfoscerate oral administration group (Example 2)” patients were […] with choline alfoscerate (400 mg/capsule), 3 times a day.
Because choline alfoscerate has no effect on the kidney and liver, it is thought that it can be used for people with kidney or liver problems as a therapeutic agent for neuropathic pain.

The test system of data set [2] is spared nerve injury (SNI) rat model. Description: Von Frey filament test (50% up and down threshold) for mechanical allodynia. It is filed as in vivo, Sprague-Dawley (SD) male rats. Conditions: for Mechanical threshold (von Frey), Before: 4 weeks after surgery, before drug treatment; for Effect on mechanical allodynia (in words): pregabalin 30 mg/kg or choline alfoscerate 325 mg/kg ip once a day for one week. An excerpt:
The spared nerve injury (SNI) rat model was used as an efficient neuropathic pain model and von Freytest was used for assessing mechanical threshold. The SNI model, one of the peripheral nerve injury models that made from the 3 nerve branches (sciatic nerve), the one was spared, and the other 2 nerves (tibial, common peroneal nerve) were axotomized. Within 4 days of injury, mechanical and thermal hyperalgesia occurs, lasting weeks to up to 6 months.
Sprague-Dawley (SD) male rats (Koatech, South Korea) weighing 100-150 g, were used to generate neuropathic pain rat models. The rats were maintained under specifically controlled conditions (ambient temperature 23±2° C., 12-h light/dark cycle). Food pellets (DBL, Chungbuk, South Korea) and water were supplied ad libitum. All procedures complied with Institutional Animal Care and Use Committee of Dankook University (IACUC, South Korea), which adheres to the guidelines issued by the Institution of Laboratory of Animal Resources.
After surgery, rats were divided into three groups: (1) control (0.9% normal saline), (2) pregabalin (30 mg/kg), (3) choline alfoscerate (325 mg/kg).
Four weeks later after surgery, Drugs were injected intraperitoneally once a day for one week.
To generate an efficient neuropathic pain model, the rats were anesthetized under 3% isoflurane (Hana Pharm., South Korea), the left calf of the rat leg was incised and the common peroneal and the tibial nerve of three peripheral nerve branches in the sciatic nerve were axotomized and the sural nerve was spared then the surgical site was closed. After the surgery, animals were placed in the home cage to recover. 2 weeks after surgery, hypersensitivity will occur in the lateral area of the rat left hind paw.
4 weeks later after surgery, we applied von Frey filament test established by 50% up and down threshold method for evaluate mechanical allodynia in SNI model we made (Chaplan et al. 1994). The pain measurement was carried out by three people in order to objectify the results. Rats were habituated 5 minutes in the apparatus. […] We stimulated 5 times in the ventral aspect of rat left paw using each filament from thick to thin. If the rat response to stimulate over 3 times, we considered that the rat has NP. The pain response was determined by the behaviors of the rats suddenly took off their foot and shrank or licked their foot with their tongues. The behavioural patterns of the pain were recorded to calculate the threshold value of the pain.
4 weeks after surgery, when the mechanical stimuli were applied to the left paw of rats using von Frey monofilaments, thresholds were calculated by looking at the behavioral patterns. Through this test, the behavioral patterns that appeared when mechanical stimuli were applied to the neuropathic pain model and expressed as threshold which was a […] assessment of the pain scoring.

The subject of data set [3] is patients with neuropathic pain. Description: Clinical trial: pain intensity by 11-point pain intensity numerical rating scale (PI-NRS) over 12 weeks. The class given is in vivo, human.
Excerpt: Patients with neuropathic pain were selected as subjects. The patients were asked to report the characteristics of neuropathic pain (type of neuropathic pain, site of occurrence, time of occurrence and frequency of occurrence), causative factors of pain, presence of diseases and relationship with pain, relationship between pain and drug medication, medication of therapeutic agents for pain, etc.
The characteristics of “nerve block treatment group (control group)” patients are described in Table 1, the characteristics of “choline alfoscerate intravenous administration group (Example 1)” patients are described in Table 2 and the characteristics of “choline alfoscerate oral administration group (Example 2)” patients are described in Table 3.
as §1, §2, §3
Pain intensity was measured for 12 weeks. The pain intensity was evaluated according to the 11-point pain intensity numerical rating scale (PI-NRS), where 0=no pain, weakest pain=1 and most severe pain=10. 2-point reduction in the pain intensity was considered clinically significant as reported (Farrar 2001, Rowbotham 2001, Hawker 2011). The pain intensity was measured on the first visit (T0) and was compared with the pain intensity 2 weeks (T1), 4 weeks (T2), 6 weeks (T3), 8 weeks (T4), 10 weeks (T5) and 12 weeks (T6) after the first drug administration.
Statistical analysis was conducted using the SASS package ver. 23 and significance was tested by the paired t-test.

“And” between values parts separate entries of the source, which are not always exact repeats. Equal entries are not always repeated.

Consider `C[N+](C)(C)CCOP(=O)([O-])OC[C@H](O)CO` [Choline alfoscerate, choline alfoscerate], for which the “Side effect after the treatment” value in data set [1] was “no side effect”. For the same compound, the “Mechanical threshold (von Frey), Before” value in data set [2] (choline alfoscerate group) is reported as 2.59 ± 0.87 g. Also, the “Mechanical threshold (von Frey), After” value in data set [2] (after choline alfoscerate 325 mg/kg intraperitoneally once a day for one week) is 7.68 ± 4.48 g. For the same compound, the “Effect on mechanical allodynia (in words)” value in data set [2] is “significantly suppressed mechanical allodynia”. Besides, the “Change in pain intensity of neuropathic pain (in words)” value in data set [3] (Example 1: iv 1 g twice a week, Example 2: oral 400 mg 3 times a day, 12 weeks) was “significant decrease in the pain intensity”. Also, the “Time after drug administration at which some patients reported decreased neuropathic pain” value in data set [3] (Example 1: iv, Example 2: oral, some patients) was “the next day”. In addition, the “Pain intensity (PI-NRS)” value was 6.64 points and 6.64 ± 1.03 points in data set [3] (T0, first visit before drug administration, choline alfoscerate iv group, 1 g/4 mL in 100 mL saline twice a week, n=59, listed as Example 1); 6.61 points and 6.61 ± 0.83 points in data set [3] (T0, first visit before drug administration, choline alfoscerate oral group, 400 mg/capsule 3 times a day, n=54, listed as Example 2); 5.19 points and 5.19 ± 1.59 points in data set [3] (T1, 2 weeks after first administration, choline alfoscerate iv 1 g twice a week, listed as Example 1); 5.41 points and 5.41 ± 1.16 points in data set [3] (T1, 2 weeks after first administration, choline alfoscerate oral 400 mg 3 times a day, listed as Example 2); 4.56 ± 1.50 points in data set [3] (T2, 4 weeks, choline alfoscerate iv 1 g twice a week); 4.52 ± 1.42 points in data set [3] (T2, 4 weeks, choline alfoscerate oral 400 mg 3 times a day). Besides, the “Pain intensity (PI-NRS)” value is 3.92 ± 1.42 points in data set [3] (T3, 6 weeks, choline alfoscerate iv 1 g twice a week); 3.63 ± 1.45 points in data set [3] (T3, 6 weeks, choline alfoscerate oral 400 mg 3 times a day); 3.34 ± 1.21 points in data set [3] (T4, 8 weeks, choline alfoscerate iv 1 g twice a week); 3.00 ± 1.23 points in data set [3] (T4, 8 weeks, choline alfoscerate oral 400 mg 3 times a day); 2.85 ± 1.10 points in data set [3] (T5, 10 weeks, choline alfoscerate iv 1 g twice a week); 2.59 ± 1.13 points in data set [3] (T5, 10 weeks, choline alfoscerate oral 400 mg 3 times a day). Besides, the “Pain intensity (PI-NRS)” value was 2.46 points and 2.46 ± 0.99 points in data set [3] (T6, 12 weeks, choline alfoscerate iv 1 g twice a week, listed as Example 1); 2.13 points and 2.13 ± 0.99 points in data set [3] (T6, 12 weeks, choline alfoscerate oral 400 mg 3 times a day, listed as Example 2). For the same compound, the “Decrease in pain intensity (PI-NRS) from T0” value was 4.18 points in data set [3] (T0 to T6 (12 weeks), choline alfoscerate iv 1 g twice a week) and 4.48 points in data set [3] (T0 to T6 (12 weeks), choline alfoscerate oral 400 mg 3 times a day).
For the compound `CCN(CC)CC(=O)Nc1c(C)cccc1C` [Control group, lidocaine], the “Pain intensity (PI-NRS)” value in data set [3] (T0, first visit before drug administration, nerve block group, 5 mL of 0.5% lidocaine at sites of pain once a week, n=38) is on record as 7.00 ± 0.52 points; in data set [3] (T0, first visit before drug administration, nerve block group, 5 mL of 0.5% lidocaine at sites of pain once a week, n=38, listed as control group), 7.00 points; in data set [3] (T1, 2 weeks after first administration, nerve block 0.5% lidocaine once a week), 5.39 ± 0.89 points; in data set [3] (T1, 2 weeks after first administration, nerve block 0.5% lidocaine once a week, listed as control group), 5.39 points; in data set [3] (T2, 4 weeks, nerve block 0.5% lidocaine once a week), 4.66 ± 0.85 points; in data set [3] (T3, 6 weeks, nerve block 0.5% lidocaine once a week), 3.63 ± 0.79 points. The “Pain intensity (PI-NRS)” value in data set [3] (T4, 8 weeks, nerve block 0.5% lidocaine once a week) was 2.87 ± 0.81 points; in data set [3] (T5, 10 weeks, nerve block 0.5% lidocaine once a week) it was 2.37 ± 0.79 points; in data set [3] (T6, 12 weeks, nerve block 0.5% lidocaine once a week), 2.24 ± 0.91 points; in data set [3] (T6, 12 weeks, nerve block 0.5% lidocaine once a week, listed as control group), 2.24 points. For the same compound, the “Decrease in pain intensity (PI-NRS) from T0” value in data set [3] (T0 to T1 (2 weeks), nerve block 0.5% lidocaine once a week) stood at 1.61 points; in data set [3] (T0 to T6 (12 weeks), nerve block 0.5% lidocaine once a week), 4.76 points.
On to `CC(C)C[C@H](CN)CC(=O)O` [Pregabalin, pregabalin], for which the “Mechanical threshold (von Frey), Before” value in data set [2] (pregabalin group) came out at 2.42 ± 0.81 g. In data set [2] (after pregabalin 30 mg/kg intraperitoneally once a day for one week), the “Mechanical threshold (von Frey), After” value stood at 9.91 ± 4.12 g. The “Effect on mechanical allodynia (in words)” value in data set [2] is “significantly suppressed mechanical allodynia”.
